Entries after “also recorded” stand apart in the source; their conditions may differ.
Legend:
[1] = test system: mean arterial blood pressure, anesthetized spontaneously hypertensive rats; experiment: Blood pressure lowering in anesthetized spontaneously hypertensive rats (SHR); format: in vivo, rat (spontaneously hypertensive); conditions: ± standard error
Description: As previously stated, the compounds of this invention are dopamine agonists. As such, one of their properties, shared by many dopamine agonists, is the ability to lower blood pressure in anesthetized spontaneously hypertensive rats (SHR). Table 1 which follows gives the results of testing compounds of this invention which lowered the blood pressure of anesthetized SHR at dose levels of 1 mg./kg. or lower. In the Table, the first 4 columns give the substitution pattern of the hydroxyaminonaphthalene carboxamide and the second 4 columns the percent blood pressure lowering±standard error for the particular compound at 4 different dose levels.

prolactin secretion = experiment: Prolactin secretion inhibition in reserpine-treated rats; format: in vivo, rat (adult male Sprague-Dawley); conditions: 1 mg./kg. intraperitoneal; reserpine-pretreated male rats; serum 1 hour after treatment
Description: The compounds of this invention are also useful as inhibitors of prolactin secretion. Dopaminergic drugs with such activity can be employed in the treatment of inappropriate lactation, such as postpartum lactation and galactorrhea. […] Each rat received an intraperitoneal injection of 2.0 mg. of reserpine in aqueous suspension 18 hours before administration of the test compound. The purpose of the reserpine was to keep prolactin levels uniformly elevated. The compounds under test were dissolved in water and were injected intraperitoneally at a 1 mg./kg. dose level. Each compound was administered to a group of 10 rats, and a control group of 10 intact males received an equivalent amount of solvent only. One hour after treatment all rats were killed by decapitation, and 150 μl. aliquots of serum were assayed for prolactin.
In the table, column 1 gives the name of the compound and column 2, the percent inhibition of prolactin secretion. The dosage was 1 mg./kg.

[2] = test system: 6-hydroxydopamine-lesioned rats (nigro-neostriatal-lesioned), turning behavior; experiment: Turning behavior in 6-hydroxydopamine-lesioned rats; format: in vivo, rat; conditions: 1 mg./kg. intraperitoneal; for Number of turns (average): counted over a 15-minute period after latency
Excerpt: Compounds with dopaminergic or dopamine agonist activity also affect turning behavior in a test procedure utilizing 6-hydroxydopamine-lesioned rats. In this test, nigro-neostriatal-lesioned rats, prepared by the procedure of Ungerstedt and Arbuthnott, Brain Res, 24, 485 (1970), are employed. A compound having dopamine agonist activity, upon injection, causes the rats to turn in circles contralateral to the side of the lesion. After a latency period, which varies from compound to compound, the number of turns is counted over a 15-minute period. The drugs to be administered are dissolved in water and the resulting aqueous solution injected into the rat by the intraperitoneal route at a 1 mg./kg. dose level.

[3] = literature; cited from earlier work
dopamine receptor = conditions: literature; cited from earlier work

## CN(C)C1CCc2c(ccc(O)c2C(N)=O)C1 (racemic) [R=CONH2, R^1=H, R^2=Me, R^3=Me, dl-2-hydroxy-6-dimethylamino-5,6,7,8-tetrahydro-1-naphthalenecarboxamide]
[1]; 1 mg./kg.
  Percent lowering of mean arterial blood pressure: -6.0 ± 0.5%
[1]; 7 mcg./kg.
  Percent lowering of mean arterial blood pressure: -6.8 ± 0.3%
[1]; 10 mcg./kg.
  Percent lowering of mean arterial blood pressure: -5.7 ± 0.3%
[1]; 100 mcg./kg.
  Percent lowering of mean arterial blood pressure: -6.7 ± 0.8%

## NC(=O)c1c(O)ccc2c1CCC(N)C2 (racemic) [dl-2-Hydroxy-6-amino-5,6,7,8-tetrahydronaphthalene-1-carboxamide]
Prolactin secretion
  Percent Inhibition of Prolactin Secretion: 13%

## CCCN(CCC)C1CCc2c(ccc(O)c2C(N)=O)C1 (racemic) [dl-2-Hydroxy-6-di-n-propylamino-5,6,7,8-tetrahydro-1-naphthalenecarboxamide]
Prolactin secretion
  Percent Inhibition of Prolactin Secretion: 12%

## NC(=O)c1cc2c(cc1O)CCC(N)C2 (racemic) [dl-3-Hydroxy-7-amino-5,6,7,8-tetrahydro-2-naphthlenecarboxamide]
[1]; 1 mg./kg.
  Percent lowering of mean arterial blood pressure: -18.3 ± 4.3%
[1]; 7 mcg./kg.
  Percent lowering of mean arterial blood pressure: -3.6 ± 0.4%
[1]; 10 mcg./kg.
  Percent lowering of mean arterial blood pressure: -5.2 ± 0.8%
[1]; 100 mcg./kg.
  Percent lowering of mean arterial blood pressure: -10.2 ± 1.2%
Prolactin secretion
  Percent Inhibition of Prolactin Secretion: 18%

## CCCN(CCC)C1CCc2cc(O)c(C(N)=O)cc2C1 (racemic) [dl-3-Hydroxy-7-di-n-propylamino-5,6,7,8-tetrahydro-2-naphthalenecarboxamide]
[1]; 1 mg./kg.
  Percent lowering of mean arterial blood pressure: -41.9 ± 1.6%
[1]; 7 mcg./kg.
  Percent lowering of mean arterial blood pressure: -6.8 ± 0.5%
[1]; 10 mcg./kg.
  Percent lowering of mean arterial blood pressure: -19.6 ± 0.8%
[1]; 100 mcg./kg.
  Percent lowering of mean arterial blood pressure: -35.9 ± 2.3%
[2]
  Percentage of rats exhibiting turning behavior: 75%
  Number of turns (average): 71
Prolactin secretion
  Percent Inhibition of Prolactin Secretion: 88%

## CN(C)C1CCc2cc(O)c(C(N)=O)cc2C1 (racemic) [dl-3-hydroxy-7-dimethylamino-5,6,7,8-tetrahydro-2-naphthalenecarboxamide]
[1]; 1 mg./kg.
  Percent lowering of mean arterial blood pressure: -32.5 ± 2.2%
[1]; 7 mcg./kg.
  Percent lowering of mean arterial blood pressure: -6.2 ± 0.7%
[1]; 10 mcg./kg.
  Percent lowering of mean arterial blood pressure: -14.0 ± 0.5%
[1]; 100 mcg./kg.
  Percent lowering of mean arterial blood pressure: -25.1 ± 3.0%
[2]
  Percentage of rats exhibiting turning behavior: 50%
  Number of turns (average): 20
Prolactin secretion
  Percent Inhibition of Prolactin Secretion: 36%

## CC(C)NC1CCc2c(ccc(O)c2CO)C1O (centres unmarked) [1-hydroxymethyl-2,5-dihydroxy-6-isopropylamino-5,6,7,8-tetrahydronaphthalene]
[3]
  bronchodilator activity (in words): bronchodilator

## CN(C)C1CCc2cc(O)c(O)cc2C1 (stereo not drawn) [6,7-dihydroxy isomer]
Dopamine receptor
  dopamine-like activity (in words): presynaptic dopamine receptor agonist

## NC1CCc2cc(O)c(O)cc2C1 (centres unmarked) [ADTN, 2-amino-6,7-dihydroxy-1,2,3,4-tetralin]
Dopamine receptor
  dopamine-like activity (in words): dopamine-like action

## CN(C)C1CCc2c(ccc(O)c2O)C1 (centres unmarked) [Example M7, 2-dimethylamino-5,6-dihydroxy-1,2,3,4-tetralin]
Dopamine receptor
  dopamine-like activity (in words): dopamine-like activity; also recorded: Its action parallels that of apomorphine

Source: patent US4500545A, “Hydroxyaminotetralincarboxamides” (Eli Lilly and Company, priority 1984, dated 1985)
